Test results reported in patent US20060204502A1 (priority 2004, published 2006).
Where two headings read alike, the source gives them in different places.

Columns and labels:
P-gp = P-gp (Homo sapiens, UniProt P08183); type: cell-based; settings: for % of Rh123 Negative Cells (cells expressing P-gp activity): HeL023 cells
Procedure: Rhodamine 123 Efflux Assay: 5×10^5 cells from each subline were loaded with 50 ng/ml of rhodamine 123 for 30 minutes at 37 C in medium. The cells were washed and resuspended in dye-staining agent free medium for 3 hours at 37 C. to allow rhodamine 123 efflux. The cells were then washed twice and the fluorescence of intracellular rhodamine 123 were analysed with Flow cytometer (residual fluorescence FRES). The fluorescence was compared with loaded cells maintained at 4 C. to prevent drug export (maximal fluorescence FMAX). […] Cells from each subline that were not being exposed to rhodamine 123 were used as negative controls.
Rhodamine 123 (Rh123) retention, a P-gp functional assay, was studied in all cell lines. This assay was performed by incubating cells with Rh123 and determining Rh123 accumulation by measuring its fluorescence. The maximum load of Rh123 (FMAX) was quantified at the end of treatment harvesting the cells and storing them at 4° C. to prevent any active Rh123 efflux. The P-gp drug efflux was allowed incubating Rh123-loaded cells in fresh new medium Rh123-free for 3 hours at 37° C. After this incubation, residual fluorescence (FRES) was measured and compared to FMAX.

A375 cells = assay: Flow cytometry cell cycle (G2/M) and apoptosis (sub-G1) analysis, A375; type: cell-based, human; settings: for EC50: Homo sapiens; for reduction of apoptosis induced by paclitaxel: A375, paclitaxel 25 ng/ml, PD98059 20 μM, U0126 30 μM, SB203580 1 μM
Procedure: Flow Cytometry Analysis: A375 and NCTC2544 adherent cells were trypsinized, mixed with floating cells, washed with PBS and permeabilised in 70% (vol/vol) ethanol/PBS solution at 4° C. for at least 24 hours. Jurkat, HeL023 and PBMC cells were centrifuged for 10 minutes at 1000×g. The cell pellet was then resuspended and permeabllised in 70% (vol/vol) ethanol/PBS solution at 4° C. for at least 24 hours. The cells were washed with PBS and the DNA was stained with a PBS solution, containing 20 μg/ml of propidium iodide and 100 μg/ml of RNAse, at room temperature for 30 minutes. Cells were analysed by FACScan (Becton-Dickinson) and the content of DNA was evaluated by the Cell-LISYS program (Becton-Dickinson). Cell distribution among cell cycle phases and apoptotic cells was evaluated as previously described (Secchiero et al., 2001). Briefly, the cell cycle distribution is shown as the percentage of cells containing 2n (G1 phase), 4n (G2 and M phases), 4n>x>2n. DNA amount (S phase) judged by propidium iodide staining. The apoptotic population is the percentage of cells with DNA content lower than 2n.
After 24 hours, cells were collected for flow cytometry analysis. PD 98059 was used at 20 uM as an inhibitor of MEK to prevent MEK-1 activation. […]
EC50 values were obtained by analysing G2/M accumulation dose response curve. ECMAX values were obtained by analysing sub-G1 accumulation dose response curve. Paclitaxel values have units of ng/ml.

HIF-1α = HIF-1α protein immunoblot in hypoxic cells; type: cell-based, human; settings: A375; for effect on Cl-IB-MECA-induced increase of HIF-1α protein expression / effect on adenosine-induced HIF-1α protein expression: hypoxia 4 hours; for effect on Cl-IB-MECA-induced increase of HIF-1α protein expression: Cl-IB-MECA 100 nM, U0126 10 and 30 μM, SB202190 1 and 10 μM; for effect on adenosine-induced HIF-1α protein expression: adenosine 100 μM, antagonist 100 nM
Procedure: Cell culture and hypoxia treatment: Cells were maintained in DMEM (A375), EMEM (NCTC 2544) or RPMI 1640 (U87MG, U2OS) medium containing 10% fetal calf serum, penicillin (100 U/ml), streptomycin (100 ug/ml), and L-glutamine (2 mM) at 37° C. in 5% CO2/95% air. Cells were passaged two or three times weekly at a ratio between 1:5 and 1:10. Hypoxic exposure was in BBL™ GasPak pouch™ System (Becton Dickinson) that reduce oxygen concentration of less than 2% within 2 hours of incubation at 35° C.
Cells were harvested and washed with ice-cold PBS containing 1 mM sodium orthovanadate, AEBSF 104 mM, aprotinin 0.08 mM, leupeptin 2 mM, bestatin 4 mM, pepstatin A 1.5 mM, E-64 1.4 mM. Cells were then lysed in Triton lysis buffer. The protein concentration was determined using BCA protein assay kit (Pierce). […] The gel was then electroblotted onto a nitrocellulose membrane. Membranes were blocked with 5% nonfat dry milk in PBS containing 0.1% Tween-20 and incubated with antibodies against HIF-1α (1:250 dilution) and HIF-1β (1:1000 dilution) in 5% nonfat dry milk in PBS/0.1% Tween-20 overnight at 4° C. Aliquots of total protein sample (50 ug) were analyzed using antibodies specific for phosphorylated (Thr183/Tyr185) or total p44/p42 MAPK (1:5000 dilution), phosphorylated (Thr180/Tyr182) or total p38 MAPK (1:1000 dilution) and for A3 receptor (1 µg/ml dilution). Filters were washed and incubated for 1 hour at room temperature with peroxidase-conjugated secondary antibodies against mouse and rabbit IgG (1:2000 dilution). […] The membranes were then stripped and reprobed with tubulin (1:250) to ensure equal protein loading.
U0126 was used at 10 and 30 uM as inhibitor of MEK-1 and MEK-2 to prevent p44 and p42 MAPK activation. SB202190 was used at 1 and 10 uM as inhibitor of p38 MAPK.
Densitometry analysis: The intensity of each band in immunoblot assay was quantified using molecular analyst/PC densitometry software (Bio-Rad). […] The data were presented as the mean±S.E., and analyzed by the Student's test.

[1] = test system: Human Colon Carcinoma HT29; assay: MTT growth inhibitory assay, HT29; type: cell-based
Procedure: Interpretation of the EF is dependent upon the concentrations of A3 receptor antagonist tested. For example, when using very low concentrations of A3 receptor antagonist, any EF above 1.0 is synergistic if the A3 receptor antagonist concentration is below the threshold of cell growth inhibition.
The cells are sub-cultured twice a week.
Vinblastine sulfate salt was obtained from Sigma Chemical Co., (V1377). Irinotecan was diluted with culture medium. All other agents were dissolved in 100% DMSO at appropriate concentrations. The DMSO stock solutions were diluted 100-fold with growth medium so that the final DMSO concentration was 1%.

P-gp, sequence (P08183 whole entry): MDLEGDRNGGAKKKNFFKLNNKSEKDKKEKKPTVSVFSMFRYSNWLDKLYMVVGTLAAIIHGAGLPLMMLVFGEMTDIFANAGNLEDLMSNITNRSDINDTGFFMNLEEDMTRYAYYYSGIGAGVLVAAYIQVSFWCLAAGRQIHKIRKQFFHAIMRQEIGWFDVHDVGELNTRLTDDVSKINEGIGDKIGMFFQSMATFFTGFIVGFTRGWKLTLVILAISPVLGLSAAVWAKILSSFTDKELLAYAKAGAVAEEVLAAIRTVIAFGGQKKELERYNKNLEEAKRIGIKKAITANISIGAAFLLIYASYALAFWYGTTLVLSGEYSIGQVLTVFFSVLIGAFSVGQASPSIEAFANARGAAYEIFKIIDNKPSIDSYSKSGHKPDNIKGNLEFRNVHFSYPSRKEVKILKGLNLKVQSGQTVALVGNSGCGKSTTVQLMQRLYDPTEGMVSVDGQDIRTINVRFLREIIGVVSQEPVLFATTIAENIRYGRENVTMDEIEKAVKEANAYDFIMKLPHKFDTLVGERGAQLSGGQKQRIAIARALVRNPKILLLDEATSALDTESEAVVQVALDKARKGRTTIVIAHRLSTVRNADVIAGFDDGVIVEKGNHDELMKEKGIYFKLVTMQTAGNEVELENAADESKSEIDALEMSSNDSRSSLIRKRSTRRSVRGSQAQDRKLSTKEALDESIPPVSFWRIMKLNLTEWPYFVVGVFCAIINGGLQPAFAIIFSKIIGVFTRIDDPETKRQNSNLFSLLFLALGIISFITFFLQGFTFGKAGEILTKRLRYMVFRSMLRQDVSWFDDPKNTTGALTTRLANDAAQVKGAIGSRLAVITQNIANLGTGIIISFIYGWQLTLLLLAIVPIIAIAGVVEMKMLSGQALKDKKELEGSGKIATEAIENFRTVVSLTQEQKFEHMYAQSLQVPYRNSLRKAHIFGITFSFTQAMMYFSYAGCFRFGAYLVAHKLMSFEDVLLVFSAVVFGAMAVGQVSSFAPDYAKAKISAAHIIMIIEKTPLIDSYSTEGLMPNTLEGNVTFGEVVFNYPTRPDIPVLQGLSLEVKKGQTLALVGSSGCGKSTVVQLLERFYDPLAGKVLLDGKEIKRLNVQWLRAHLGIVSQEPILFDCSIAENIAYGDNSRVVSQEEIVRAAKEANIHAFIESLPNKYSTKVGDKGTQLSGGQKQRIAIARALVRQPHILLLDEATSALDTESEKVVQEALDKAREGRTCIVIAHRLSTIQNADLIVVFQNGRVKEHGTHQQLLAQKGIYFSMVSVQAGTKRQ

Q: For `Nc1nc2ccc(Cl)cc2c2nc(-c3ccco3)nn12` [CGS 15943, 5-amino-9-chloro-2-(furyl)1,2,4-triazolo[1,5-c]quinazoline, reference compound], which “% of Rh123 Negative Cells (cells expressing P-gp activity)” value (P-gp; 70 μM) is on record?
A: Its value is 87.1 ± 1.0%.

Q: And the EC50 (A375 cells; A-375, read-out: SEC50)?
A: The EC50 was 12600 ± 1410 nM.

Q: What does the source list for `N#CC(=C(/N)Sc1ccccc1N)/C(C#N)=C(\N)Sc1ccccc1N` [Compound U0126]?
A: effect on MRE 3008F20 blockade of P-gp (P-gp; A375, U0126 30 μM 30 minutes, then MRE3008F20 10 μM): failed to prevent MRE 3008F20 blockade of P-gp; effect on Cl-IB-MECA-induced increase of HIF-1α protein expression (HIF-1α): able to inhibit; reduction of apoptosis induced by paclitaxel (A375 cells): 73±10%

Q: For `CCCn1c(=O)c2[nH]c(-c3cc(OCC(=O)Nc4ccc5c(c4)OCO5)nn3C)nc2n(CCC)c1=O` [MRE 2029F20], which “effect on adenosine-induced HIF-1α protein expression” value (HIF-1α) is on record?
A: The value was “not able to prevent”.

Q: `Cn1cc2c(nc(NC(=O)Nc3ccncc3)n3nc(-c4ccco4)nc23)n1` [MRE 3005F20] was tested. Which “effect on Cl-IB-MECA-induced HIF-1α modulation” value (HIF-1α; hypoxia, antagonist 10 and 100 nM, Cl-IB-MECA 10 and 100 nM) did it give?
A: The value was “able to abrogate the effect of Cl-IB-MECA”.

Q: With `Cc1ccc(NC(=O)Nc2nc3nn(C)cc3c3nc(-c4ccco4)nn23)cc1` [MRE 3046F20, 5-N-(4-methylphenyl-carbamoyl)amino-8-methyl-2(2-furyl)-pyrazolo-[4,3e]-1,2,4-triazolo[1,5-c]pyrimidine] as the molecule, how does the “% of Rh123 Negative Cells (cells expressing P-gp activity)” value (P-gp; 10 μM) read?
A: Its value is 22.0 ± 1.0%.

Q: And the EC50 (A375 cells; A-375, read-out: SEC50)?
A: The EC50 was 570 ± 60 nM.

Q: Which “% of Rh123 Negative Cells (cells expressing P-gp activity)” value (P-gp; 10 μM) does the source give for `CCCn1cc2c(nc(NC(=O)Nc3ccccc3)n3nc(-c4ccco4)nc23)n1` [MRE 3055F20, 5-N-(4-phenylcarbamoyl)amino-8-propyl-2(2furyl)-pyrazolo[4,3e]-1,2,4-triazolo-[1,5c]pyrimidine] here?
A: Its value is 0.8 ± 0.2%.

Q: What about the EC50 (A375 cells; A-375, read-out: SEC50) of the same molecule?
A: Its EC50 is 310 ± 30 nM.

Q: For `Oc1ccc(-c2nc(-c3ccncc3)c(-c3ccc(F)cc3)[nH]2)cc1` [SB202190], which “effect on Cl-IB-MECA-induced increase of HIF-1α protein expression” value (HIF-1α) is on record?
A: The value was “able to inhibit”.

Q: `C[S+]([O-])c1ccc(-c2nc(-c3ccncc3)c(-c3ccc(F)cc3)[nH]2)cc1` (centres unmarked) [SB203580] was tested. Which “reduction of apoptosis induced by paclitaxel” value (A375 cells) did it give?
A: The value was “did not exert any effect”.

Q: Which “effect on adenosine-induced HIF-1α protein expression” value (HIF-1α) does the source give for `Nc1nc2c(cnn2CCc2ccccc2)c2nc(-c3ccco3)nn12` [SCH 58261, 5-amino-7-(2-phenylethyl)-2-(2-furyl)-pyrazolo[4,3-e]-1,2,4-triazolo[1,5-c]pyrimidine] here?
A: The value was “not able to prevent”.

Q: How did the “fold more refractory, HT29 vs A375 cell line (IC50)” value [1] turn out when `COc1cccc2c1C(=O)c1c(O)c3c(c(O)c1C2=O)C[C@@](O)(C(=O)CO)C[C@@H]3O[C@H]1C[C@H](N)[C@H](O)[C@H](C)O1` [doxorubicin, reference compound] was run?
A: The value was “approximately 30 fold”.

Q: `O=C1c2c(O)ccc(O)c2C(=O)c2c(NCCNCCO)ccc(NCCNCCO)c21` [mitoxantrone, reference compound] was tested. Which “fold more refractory, HT29 vs A375 cell line (IC50)” value [1] did it give?
A: The value was “approximately 30 fold”.

Q: How did the EC50 (A375 cells; A-375, 24 h, read-out: EC50 (G2/M accumulation)) turn out when `CC[C@]1(O)C[C@@H]2CN(CCc3c([nH]c4ccccc34)[C@@](C(=O)OC)(c3cc4c(cc3OC)N(C)[C@H]3[C@@](O)(C(N)=O)[C@H](O)[C@]5(CC)C=CCN6CC[C@]43[C@@H]65)C2)C1` [vindesine] was run?
A: Its EC50 is 1.9 ± 0.2 nM.
